This passage reports Ki, IC50 and Activity results from ChEMBL document CHEMBL1152625, “Pochonicine, a polyhydroxylated pyrrolizidine alkaloid from fungus Pochonia suchlasporia var. suchlasporia TAMA 87 as a potent beta-N-acetylglucosaminidase inhibitor” (Bioorg Med Chem, 2009).

Active and inactive are the calls of the source. The rule behind the calls is not given here.

Assay [1] is described as follows: Inhibition of bovine kidney beta-N-acetylglucosaminidase by pNP-GlcNAc substrate hydrolysis assay. Further details: species or system Bos taurus.
Assay [2] can be described thus: Inhibition of jack bean beta-N-acetylglucosaminidase by pNP-GlcNAc substrate hydrolysis assay. Details: species or system Canavalia ensiformis.
Assay [3] can be described thus: Inhibition of Spodoptera litura beta-N-acetylglucosaminidase by pNP-GlcNAc substrate hydrolysis assay.
A short description of assay [4]: Inhibition of Aspergillus oryzae beta-N-acetylglucosaminidase by pNP-GlcNAc substrate hydrolysis assay.
Assay [5] is described as follows: Inhibition of Penicillium oxalicum beta-N-acetylglucosaminidase by pNP-GlcNAc substrate hydrolysis assay.
The nature of assay [6]: Competitive inhibition of Spodoptera litura beta-N-acetylglucosaminidase by pNP-GlcNAc substrate hydrolysis assay.
The nature of assay [7]: Noncompetitive inhibition of Aspergillus oryzae beta-N-acetylglucosaminidase by pNP-GlcNAc substrate hydrolysis assay.
A short description of assay [8]: Mixed type inhibition of Penicillium oxalicum beta-N-acetylglucosaminidase by pNP-GlcNAc substrate hydrolysis assay.
A short description of assay [9]: Noncompetitive inhibition of bovine kidney beta-N-acetylglucosaminidase by pNP-GlcNAc substrate hydrolysis assay. Further details: species or system Bos taurus.
A short description of assay [10]: Competitive inhibition of jack bean beta-N-acetylglucosaminidase by pNP-GlcNAc substrate hydrolysis assay. Further details: species or system Canavalia ensiformis.
A further assay relates to Bacillus sp. Nature of the assay: Inhibition of Bacillus sp. chitinase at 209 uM by pNP-GlcNAc2 substrate hydrolysis assay.
A further assay relates to Prunus dulcis. Nature of the assay: Inhibition of almond beta-glucosidase at 2.38 uM by pNP-beta-Glc substrate hydrolysis assay.
In another assay the test system is Saccharomyces cerevisiae. Nature of the assay: Inhibition of yeast alpha-glucosidase at 2.38 uM by […] substrate hydrolysis assay.
A short description of assay [11]: Competitive inhibition of Aspergillus oryzae beta-N-acetylglucosaminidase by pNP-GlcNAc substrate hydrolysis assay.
Assay [12] in a line: Competitive inhibition of Penicillium oxalicum beta-N-acetylglucosaminidase by pNP-GlcNAc substrate hydrolysis assay.
The nature of assay [13]: Competitive inhibition of bovine kidney beta-N-acetylglucosaminidase by pNP-GlcNAc substrate hydrolysis assay. Further details: species or system Bos taurus.

On to `CC(=O)NC[C@@H]1N[C@H](CO)[C@@H](O)[C@@H]1O`, for which the values for the Ki in assay [1] and in assay [2] were 68600 nM and 3600 nM, respectively.

On to `CC(=O)NC[C@H]1N[C@H](CO)[C@@H](O)[C@@H]1O`, for which the Ki (as a rule, the dissociation constant of the complex between target and ligand, obtained from inhibition or displacement) in assay [1] was found to be 9800 nM; in [2] it was 1900 nM.

As for `CC(=O)NC[C@H]1[C@H](O)[C@H](O)[C@@H]2[C@H](O)C[C@@H](CO)N21` (relative stereo) [POCHONICINE], the IC50 – broadly, the point on the concentration scale where inhibition reaches its midpoint – worked out at 5.96 nM in assay [3]; 20.3 nM in [4]; 42.1 nM in assay [5]; 1.06 nM in assay [1]; 0.288 nM in assay [2]. The Ki turned out to be 1.77 nM in [6]; 141 nM in assay [7]; 13.2 nM in assay [8]; 1.04 nM in assay [9]; 0.162 nM in assay [10]. Moreover, the result with Bacillus sp., in the assay with Prunus dulcis and with Saccharomyces cerevisiae was inactive.

As for `CC(=O)N[C@H]1c2nc(CC(=O)O)cn2[C@H](CO)[C@H](O)[C@@H]1O` [NAGSTATIN], the IC50 in assay [3] came to 5.85 nM; in assay [4] it was 10.6 nM; in assay [5], 60.6 nM; in assay [1], 1.71 nM. For the same compound, the Ki is 1.1 nM in assay [6]; 1.41 nM in [10]; 9.69 nM in assay [11]; 8.11 nM in assay [12]; 1.64 nM in assay [13].
